Experimental data as given in the CheMixHub viscosity set.

Experiment: xn = mol fraction of the nth substance listed

Cc1ccc(C(C)C)c(O)c1 + CCCCCCCCCCCCCC(=O)O
100 kPa, x2 = 0.25
Details | viscosity [mPa·s]
313.15 K | 8.69
318.15 K | 7.16
323.15 K | 5.98

Cc1ccc(C(C)C)c(O)c1 + CCCCCCCCCCCCCCCC(=O)O
100 kPa, x2 = 0.2
Details | viscosity [mPa·s]
313.15 K | 9.21
318.15 K | 7.54
323.15 K | 6.29

Cc1ccc(C(C)C)c(O)c1 + CCCCCCCCCCCCCCCCCC(=O)O
100 kPa, x2 = 0.1
Details | viscosity [mPa·s]
318.15 K | 6.88
323.15 K | 5.68

CCN(CC)c1ccccc1 + CCCCCCCCO
viscosity [mPa·s], 100 kPa
Details | x1 = 0.1141 | x1 = 0.2548 | x1 = 0.3537 | x1 = 0.4726 | x1 = 0.5725 | x1 = 0.6945 | x1 = 0.7795 | x1 = 0.8584 | x1 = 0.9317
303.15 K | 5.389 | 4.382 | 3.806 | 3.235 | 2.842 | 2.446 | 2.212 | 2.016 | 1.847
308.15 K | 4.42 | 3.49 | 2.987 | 2.519 | 2.221 | 1.947 | 1.8 | 1.684 | 1.587
313.15 K | 3.684 | 2.854 | 2.428 | 2.056 | 1.837 | 1.653 | 1.56 | 1.487 | 1.421
318.15 K | 3.135 | 2.356 | 1.976 | 1.667 | 1.503 | – | 1.339 | 1.305 | 1.271

CCN(CC)c1ccccc1 + CCCCCCCO
viscosity [mPa·s], 100 kPa
Details | x1 = 0.1216 | x1 = 0.2426 | x1 = 0.3349 | x1 = 0.4641 | x1 = 0.5612 | x1 = 0.6524 | x1 = 0.7356 | x1 = 0.8144 | x1 = 0.9141
303.15 K | 4.25 | 3.593 | 3.178 | 2.706 | 2.425 | 2.21 | 2.049 | 1.923 | 1.792
308.15 K | 3.658 | 3.095 | 2.735 | 2.323 | 2.079 | 1.895 | 1.763 | 1.665 | 1.577
313.15 K | 3.122 | 2.622 | 2.308 | 1.96 | 1.76 | 1.617 | 1.52 | 1.455 | 1.405
318.15 K | 2.671 | 2.129 | 1.826 | 1.535 | 1.398 | 1.319 | 1.278 | 1.257 | 1.243

CCCCCCCCCCCC(=O)OCC + CCCCCCO
viscosity [mPa·s], 101.33 kPa
Details | 293.15 K | 298.15 K | 303.15 K | 308.15 K | 313.15 K | 318.15 K | 323.15 K
x2 = 0.1 | 3.266 | 2.909 | 2.623 | 2.367 | 2.136 | 1.965 | 1.778
x2 = 0.2 | 3.214 | 2.867 | 2.596 | 2.334 | 2.09 | 1.918 | 1.731
x2 = 0.2999 | 3.216 | 2.872 | 2.575 | 2.309 | 2.095 | 1.896 | 1.724
x2 = 0.4 | 3.215 | 2.868 | 2.57 | 2.296 | 2.067 | 1.883 | 1.695
x2 = 0.4999 | – | 2.906 | 2.597 | 2.316 | 2.073 | 1.896 | 1.7
x2 = 0.5 | 3.25 | – | – | – | – | – | –
x2 = 0.5999 | 3.374 | – | – | – | – | – | –
x2 = 0.6 | – | 3.01 | 2.673 | 2.379 | 2.13 | 1.942 | 1.725
x2 = 0.7 | 3.486 | 3.101 | 2.771 | 2.459 | 2.186 | 1.965 | 1.761
x2 = 0.8 | 3.852 | 3.366 | 2.979 | 2.621 | 2.316 | 2.079 | 1.848
x2 = 0.8999 | 4.374 | – | – | – | – | – | –
x2 = 0.9 | – | 3.769 | 3.316 | 2.902 | 2.568 | 2.261 | 1.972

CCN(CC)c1ccccc1 + CCCCCCO
viscosity [mPa·s], 100 kPa
Details | x1 = 0.1057 | x1 = 0.1952 | x1 = 0.3004 | x1 = 0.4021 | x1 = 0.5011 | x1 = 0.6117 | x1 = 0.7135 | x1 = 0.8163 | x1 = 0.9045
303.15 K | 3.391 | 3.041 | 2.695 | 2.423 | 2.207 | 2.014 | 1.879 | 1.78 | 1.725
308.15 K | 2.85 | 2.524 | 2.226 | 1.997 | 1.814 | 1.667 | 1.577 | 1.525 | 1.501
313.15 K | 2.403 | 2.096 | 1.835 | 1.652 | 1.518 | 1.405 | 1.332 | 1.297 | 1.313
318.15 K | 2.105 | 1.801 | 1.569 | 1.421 | 1.314 | 1.218 | 1.151 | 1.119 | 1.148

CCCCC(CC)COC(C)=O (stereo not given) + CCCCCO
viscosity [mPa·s], 101.33 kPa
Details | x1 = 0.1041 | x1 = 0.2073 | x1 = 0.3002 | x1 = 0.4211 | x1 = 0.4987 | x1 = 0.6 | x1 = 0.7008 | x1 = 0.8092 | x1 = 0.9033
293.15 K | 3.692 | 3.321 | 3.019 | 2.666 | 2.462 | 2.219 | 2 | 1.79 | 1.625
303.15 K | 2.68 | 2.451 | 2.262 | 2.037 | 1.905 | 1.745 | 1.599 | 1.456 | 1.342
313.15 K | 2.119 | 1.955 | 1.818 | 1.653 | 1.556 | 1.437 | 1.328 | 1.22 | 1.134
323.15 K | 1.255 | 1.209 | 1.169 | 1.119 | 1.087 | 1.048 | 1.01 | 0.971 | 0.938

CCCCCCCCCCCC(=O)OCC + CCCCCO
viscosity [mPa·s], 101.33 kPa
Details | x2 = 0.1 | x2 = 0.2 | x2 = 0.2999 | x2 = 0.4 | x2 = 0.4999 | x2 = 0.6 | x2 = 0.7 | x2 = 0.8 | x2 = 0.9
293.15 K | 3.228 | 3.128 | 3.064 | 3.018 | 2.992 | 2.994 | 3.044 | 3.147 | 3.437
298.15 K | 2.884 | 2.802 | 2.741 | 2.699 | 2.68 | 2.667 | 2.706 | 2.783 | 3.024
303.15 K | 2.603 | 2.515 | 2.46 | 2.424 | 2.387 | 2.383 | 2.403 | 2.479 | 2.663
308.15 K | 2.349 | 2.275 | 2.238 | 2.173 | 2.141 | 2.131 | 2.142 | 2.201 | 2.351
313.15 K | 2.12 | 2.065 | 2.014 | 1.954 | 1.926 | 1.913 | 1.919 | 1.963 | 2.074
318.15 K | 1.948 | 1.888 | 1.852 | 1.801 | 1.765 | 1.745 | 1.735 | 1.776 | 1.867
323.15 K | 1.759 | 1.699 | 1.658 | 1.601 | 1.569 | 1.546 | 1.553 | 1.584 | 1.652

CCCCC(CC)COC(C)=O (stereo not given) + CCCCO
viscosity [mPa·s], 101.33 kPa
Details | x1 = 0.0991 | x1 = 0.2017 | x1 = 0.2984 | x1 = 0.4115 | x1 = 0.5002 | x1 = 0.6078 | x1 = 0.7049 | x1 = 0.8061 | x1 = 0.9005
293.15 K | 2.681 | 2.504 | 2.344 | 2.177 | 2.052 | 1.91 | 1.791 | 1.674 | 1.572
303.15 K | 2.139 | 2.01 | 1.894 | 1.768 | 1.675 | 1.568 | 1.478 | 1.389 | 1.311
313.15 K | 1.605 | 1.529 | 1.461 | 1.386 | 1.329 | 1.264 | 1.207 | 1.151 | 1.101
323.15 K | 1.07 | 1.05 | 1.031 | 1.01 | 0.994 | 0.974 | 0.957 | 0.939 | 0.923

CCCN(CCC)CCC + CCCCO
303.15 K, 101 kPa
Details | viscosity [mPa·s]
x1 = 0.01186 | 2.225
x1 = 0.01943 | 2.201
x1 = 0.03035 | 2.178
x1 = 0.03999 | 2.157
x1 = 0.05088 | 2.133
x1 = 0.0617 | 2.112
x1 = 0.07408 | 2.085
x1 = 0.08019 | 2.074
x1 = 0.08635 | 2.059

ClCCCCl + CCCCO
viscosity [mPa·s], 101 kPa
Details | x1 = 0.0958 | x1 = 0.2016 | x1 = 0.3004 | x1 = 0.3983 | x1 = 0.5002 | x1 = 0.5993 | x1 = 0.6997 | x1 = 0.7997 | x1 = 0.9
298.15 K | 2.139 | 1.773 | 1.512 | 1.32 | 1.177 | 1.071 | 0.9963 | 0.9461 | 0.9256
313.15 K | 1.488 | 1.261 | 1.101 | 0.9831 | 0.8935 | 0.8317 | 0.7876 | 0.76 | 0.7528
